# Laboratory results: ChEMBL document CHEMBL4616687, “Ligand Design for Cereblon Based Immunomodulatory Therapy” (ACS Med Chem Lett, 2020)
# Target: Bromodomain-containing protein 4 (Homo sapiens, UniProt O60885)
# Experiment: Inhibition of BRD4 bromodomain 2 (unknown origin) in HEK293 cells cotransfected with eGFP by flow cytometry based mCherry reporter gene analysis
# Assay type: cell-based
row,SMILES,IC50 [µM]
1,O=C1CCC(N2Cc3c(NC(=O)CNc4ccnc(N5CCC[C@@H]5CO)n4)cccc3C2=O)C(=O)N1 (stereo not given in full),1.6
2,Nc1ccnc2c(C(=O)NC3CCC(=O)NC3=O)cccc12 (stereo not given),7.7
3,CN(c1ccccc1)c1nccc(NCC(=O)Nc2cccc3c2CN(C2CCC(=O)NC2=O)C3=O)n1 (stereo not given),3.44
4,Nc1ccc(C(=O)NC2CCC(=O)NC2=O)c2ncccc12 (stereo not given),2.9
5,O=C1CCC(N2Cc3c(NC(=O)CNc4ccnc(N5CCN(c6cccc(C(F)(F)F)c6)CC5)n4)cccc3C2=O)C(=O)N1 (stereo not given),0.517
